Legend:
[1] = target: full-length RORγt in Jurkat cells (Homo sapiens (Human), UniProt P51449); test: RORγt 5×RORE Assay in Jurkat Cells (Assay 2); assay type: cell-based; details: 5×RORE Nanoluc luciferase reporter
[2] = target: recombinant RORγ Ligand Binding Domain (LBD) protein (Homo sapiens (Human), UniProt P51449); test: Radio-Ligand RORγ Binding Assay (Assay 1); details: competition with 25-hydroxy [26,27-3H]-cholesterol, SPA
Procedure, shortened: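 Scintillation proximity competition against 25-hydroxy [26,27-^3H]-cholesterol (8.6 nM solution) for 6×His-GST-tagged RORγ LBD (24 nM solution) in HEPES pH 7.4 with CHAPS, β-octylglucopyranoside and DTT; semi-log compound dilutions, ~1 h total at rt with poly-Lys YSi beads. IC50 from four-parameter fit; Ki derived from [RL] and radioligand KD.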

Chain of full-length RORγt in Jurkat cells (P51449 other isoform, or with tags, fused parts or gaps): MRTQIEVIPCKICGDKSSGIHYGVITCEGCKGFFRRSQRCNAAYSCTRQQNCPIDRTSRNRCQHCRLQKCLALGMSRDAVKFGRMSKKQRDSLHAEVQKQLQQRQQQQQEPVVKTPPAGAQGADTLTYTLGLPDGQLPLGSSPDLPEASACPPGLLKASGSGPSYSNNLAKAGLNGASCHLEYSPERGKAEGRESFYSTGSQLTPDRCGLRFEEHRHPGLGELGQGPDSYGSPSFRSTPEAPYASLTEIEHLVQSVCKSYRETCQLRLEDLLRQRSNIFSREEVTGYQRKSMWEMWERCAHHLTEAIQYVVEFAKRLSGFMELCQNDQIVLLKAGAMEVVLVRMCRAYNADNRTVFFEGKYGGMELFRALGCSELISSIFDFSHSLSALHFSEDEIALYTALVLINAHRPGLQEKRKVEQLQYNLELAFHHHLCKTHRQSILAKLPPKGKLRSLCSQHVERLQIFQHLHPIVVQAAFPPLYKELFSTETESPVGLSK
Chain of recombinant RORγ Ligand Binding Domain (LBD) protein (P51449 269-508): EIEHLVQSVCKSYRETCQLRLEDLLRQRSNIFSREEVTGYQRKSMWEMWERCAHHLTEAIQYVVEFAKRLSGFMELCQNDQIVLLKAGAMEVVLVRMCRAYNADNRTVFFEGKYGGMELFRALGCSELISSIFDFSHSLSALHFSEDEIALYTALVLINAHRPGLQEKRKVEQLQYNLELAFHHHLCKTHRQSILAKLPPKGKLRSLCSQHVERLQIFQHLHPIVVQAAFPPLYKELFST

| IC50 [1] [nM] | Ki [2] [nM] | SMILES |
| --- | --- | --- |
| < 100 | < 100 | CS(=O)(=O)c1ccc(CNC(=O)c2ccc3c(c2)nc(C(F)(F)F)n3Cc2cccc3c2OC(F)(F)O3)cc1 [I-48, 1-((2,2-difluorobenzo[d][1,3]dioxol-4-yl)methyl)-N-(4-(methylsulfonyl)benzyl)-2-(trifluoromethyl)-1H-benzo[d]imidazole-5-carboxamide] |
| < 100 | < 100 | CS(=O)(=O)c1ccc(CNC(=O)c2ccc3c(c2)nc(C(F)F)n3Cc2cccc3c2OC(F)(F)O3)cc1 [I-50, 1-((2,2-difluorobenzo[d][1,3]dioxol-4-yl)methyl)-2-(difluoromethyl)-N-(4-(methylsulfonyl)benzyl)-1H-benzo[d]imidazole-5-carboxamide] |
| 100 to 1000 | < 100 | NS(=O)(=O)c1ccc(CNC(=O)c2ccc3c(c2)nc(C(F)(F)F)n3Cc2cccc3c2OC(F)(F)O3)cc1 [I-51, 1-((2,2-difluorobenzo[d][1,3]dioxol-4-yl)methyl)-N-(4-sulfamoylbenzyl)-2-(trifluoromethyl)-1H-benzo[d]imidazole-5-carboxamide] |
| < 100 | < 100 | CCCS(=O)(=O)c1ccc(CNC(=O)c2ccc3c(c2)nc(C(F)(F)F)n3Cc2cccc3c2OC(F)(F)O3)cc1 [I-52, 1-((2,2-difluorobenzo[d][1,3]dioxol-4-yl)methyl)-N-(4-(propylsulfonyl)benzyl)-2-(trifluoromethyl)-1H-benzo[d]imidazole-5-carboxamide] |
| 100 to 1000 | < 100 | COC(=O)CS(=O)(=O)c1ccc(CNC(=O)c2ccc3c(c2)nc(C(F)(F)F)n3Cc2cccc3c2OC(F)(F)O3)cc1 [I-53, methyl 2-((4-((1-((2,2-difluorobenzo[d][1,3]dioxol-4-yl)methyl)-2-(trifluoromethyl)-1H-benzo[d]imidazole-5-carboxamido)methyl)phenyl)sulfonyl)acetate] |
| < 100 | < 100 | CCS(=O)(=O)c1ccc(CNC(=O)c2ccc3c(c2)nc(C(C)(C)OC)n3Cc2cccc3c2OC(F)(F)O3)cc1 [I-54, 1-((2,2-difluorobenzo[d][1,3]dioxol-4-yl)methyl)-N-(4-(ethylsulfonyl)benzyl)-2-(2-methoxypropan-2-yl)-1H-benzo[d]imidazole-5-carboxamide] |
| 100 to 1000 | < 100 | CCS(=O)(=O)c1ccc(CNC(=O)c2ccc3c(c2)nc(OC)n3Cc2cccc3c2OC(F)(F)O3)cc1 [I-55, 1-((2,2-difluorobenzo[d][1,3]dioxol-4-yl)methyl)-N-(4-(ethylsulfonyl)benzyl)-2-methoxy-1H-benzo[d]imidazole-5-carboxamide] |

More lines, now with the values behind:

| SMILES | IC50 [1] [nM] | Ki [2] [nM] |
| --- | --- | --- |
| CCS(=O)(=O)c1ccc(CNC(=O)c2ccc3c(c2)nc(C2CCC2)n3Cc2cccc3c2OC(F)(F)O3)cc1 [I-36, 2-cyclobutyl-1-((2,2-difluorobenzo[d][1,3]dioxol-4-yl)methyl)-N-(4-(ethylsulfonyl)benzyl)-1H-benzo[d]imidazole-5-carboxamide] | < 100 | < 100 |
| CCS(=O)(=O)c1ccc(CNC(=O)c2ccc3c(c2)nc(C(F)F)n3Cc2cccc3c2OC(F)(F)O3)cc1 [I-37, 1-((2,2-difluorobenzo[d][1,3]dioxol-4-yl)methyl)-2-(difluoromethyl)-N-(4-(ethylsulfonyl)benzyl)-1H-benzo[d]imidazole-5-carboxamide] | < 100 | < 100 |
| CCS(=O)(=O)c1ccc(CNC(=O)c2ccc3c(c2)nc(C(C)(F)F)n3Cc2cccc3c2OC(F)(F)O3)cc1 [I-38, 1-((2,2-difluorobenzo[d][1,3]dioxol-4-yl)methyl)-2-(1,1-difluoroethyl)-N-(4-(ethylsulfonyl)benzyl)-1H-benzo[d]imidazole-5-carboxamide] | < 100 | < 100 |
| CCS(=O)(=O)c1ccc(CNC(=O)c2ccc3c(c2)nc([C@H]2CCCO2)n3Cc2cccc3c2OC(F)(F)O3)cc1 [I-39.1, (R)-1-((2,2-difluorobenzo[d][1,3]dioxol-4-yl)methyl)-N-(4-(ethylsulfonyl)benzyl)-2-(tetrahydrofuran-2-yl)-1H-benzo[d]imidazole-5-carboxamide] | < 100 | < 100 |
| CCS(=O)(=O)c1ccc(CNC(=O)c2ccc3c(c2)nc([C@@H]2CCCO2)n3Cc2cccc3c2OC(F)(F)O3)cc1 [I-39.2, (S)-1-((2,2-difluorobenzo[d][1,3]dioxol-4-yl)methyl)-N-(4-(ethylsulfonyl)benzyl)-2-(tetrahydrofuran-2-yl)-1H-benzo[d]imidazole-5-carboxamide] | < 100 | < 100 |
| CS(=O)(=O)c1ccc(CNC(=O)c2ccc3c(c2)nc(C2(F)CC2)n3Cc2cccc3c2OC(F)(F)O3)cc1 [I-40, 1-((2,2-difluorobenzo[d][1,3]dioxol-4-yl)methyl)-2-(1-fluorocyclopropyl)-N-(4-(methylsulfonyl)benzyl)-1H-benzo[d]imidazole-5-carboxamide] | < 100 | < 100 |
| O=C(NCc1ccc(S(=O)(=O)CCO)cc1)c1ccc2c(c1)nc(C1(F)CC1)n2Cc1cccc2c1OC(F)(F)O2 [I-41, 1-((2,2-difluorobenzo[d][1,3]dioxol-4-yl)methyl)-2-(1-fluorocyclopropyl)-N-(4-((2-hydroxyethyl)sulfonyl)benzyl)-1H-benzo[d]imidazole-5-carboxamide] | < 100 | < 100 |
| CNS(=O)(=O)c1ccc(CNC(=O)c2ccc3c(c2)nc(C2(F)CC2)n3Cc2cccc3c2OC(F)(F)O3)cc1 [I-42, 1-((2,2-difluorobenzo[d][1,3]dioxol-4-yl)methyl)-2-(1-fluorocyclopropyl)-N-(4-(N-methylsulfamoyl)benzyl)-1H-benzo[d]imidazole-5-carboxamide] | < 100 | < 100 |
| CCS(=O)(=O)c1ccc(CNC(=O)c2ccc3c(c2)nc(C2(F)CCC2)n3Cc2cccc3c2OC(F)(F)O3)cc1 [I-43, 1-((2,2-difluorobenzo[d][1,3]dioxol-4-yl)methyl)-N-(4-(ethylsulfonyl)benzyl)-2-(1-fluorocyclobutyl)-1H-benzo[d]imidazole-5-carboxamide] | < 100 | < 100 |
| O=C(NCc1ccc(S(=O)(=O)CCO)cc1)c1ccc2c(c1)nc(C(F)(F)F)n2Cc1cccc2c1OC(F)(F)O2 [I-45, 1-((2,2-difluorobenzo[d][1,3]dioxol-4-yl)methyl)-N-(4-((2-hydroxyethyl)sulfonyl)benzyl)-2-(trifluoromethyl)-1H-benzo[d]imidazole-5-carboxamide] | < 100 | < 100 |
| CNS(=O)(=O)c1ccc(CNC(=O)c2ccc3c(c2)nc(C(F)(F)F)n3Cc2cccc3c2OC(F)(F)O3)cc1 [I-46, 1-((2,2-difluorobenzo[d][1,3]dioxol-4-yl)methyl)-N-(4-(N-methylsulfamoyl)benzyl)-2-(trifluoromethyl)-1H-benzo[d]imidazole-5-carboxamide] | < 100 | < 100 |
| O=C(NCc1ccc(S(=O)(=O)CCO)cc1)c1ccc2c(c1)nc(C1CC1)n2Cc1cccc2c1OC(F)(F)O2 [I-47, 2-cyclopropyl-1-((2,2-difluorobenzo[d][1,3]dioxol-4-yl)methyl)-N-(4-((2-hydroxyethyl)sulfonyl)benzyl)-1H-benzo[d]imidazole-5-carboxamide] | < 100 | < 100 |

Source: US10829481B2, “Benzimidazole derivatives as modulators of ROR-gamma” (Vitae Pharmaceuticals, LLC, priority 2016, dated 2020)
